# Measurements from patent US20070259866A1, “Method of Adenovirus, HIV and HPV Prophylaxis” (priority 1999, published 2007).
# What was measured:
# adenovirus = assay: Inhibition of adenovirus infection in A549 cells in vitro; format: cell-based
# Excerpt: Compound 96 inhibited adenovirus infection 67% in A549 cells in vitro.
# varicella-zoster virus = assay: Inhibition of varicella-zoster virus infection in vitro; format: cell-based
# Excerpt: Compound 96 inhibited varicella-zoster virus infection >98% in vitro.
# [1] = system: NL-HX (T cell-tropic isolate) Virus; assay: Inactivation of HIV stock by 1 hr drug treatment, then PBMC infection, fluorescent focus assay (NL-HX); format: cell-based, Human Immunodeficiency Virus (HIV); settings: for Average # infected cells/area / # infected cells/area (~500 cells): 8 days; for # infected cells/area (~500 cells): single area counts
# Method: In a study of the prophylactic effects of Compound 96 on Human Immunodeficiency Virus (HIV), virus stock solutions were inactivated by treatment with Compound 96. Stock solutions of viral types NL-HX-ADA having a p24 concentration of 4.1 μg/ml and NL-HX (P122) having a p24 concentration of 3.8 μg/ml were used for the study, along with a stock solution of Compound 96 having a concentration of 20 mg/ml in RPMI media.
# Concentrated stock solution of viruses were treated for 1 hr with equal volume of medium containing the drug at the following concentrations:
# After the 1 hr treatment period, the virus-drug solutions were diluted 1:1,000 with complete medium, and then mixed with an equal volume of Peripheral Blood Mononucleocyte (PBMC) cells, for a final dilution of virus and drug of 1:4,000.
# The infected cultures were then incubated without any washing or other changes in media for 4 days (for the M-tropic NL-HX-ADA type) and 8 days (for the T-tropic NL-HX type). The cultures were then assayed for infection using standard fluorescent focus assays to quantitate infected cells.
# [2] = system: NL-HX-ADA (molecularly cloned macrophage-tropic type of HIV-1); assay: Time course of anti-HIV effect of CTC96 (neutralization vs contact time); format: cell-based
# Method: • Stock virus: NL-HX-ADA ˜5.5 μg/ml p24 (This is a molecularly cloned macrophage-tropic type of HIV-1). Virus was used to infect cells at 1:4,000 final dilution (˜1.4 ng/ml p24). Stock CTC-96: 10 mg/ml prepared directly in RPMI 1640 Method: Concentrated stock solution of virus was treated for 1 hour with equal volume of medium containing the drug at the indicated concentrations (1:2 dilution). The virus/drug mixture was then diluted 1,000-fold (1:2,000 dilution) and then added to an equal volume of PHA-activated humans PBMCs (1:4,000 final dilution) to allow virus replication to occur. The extent of infection was measured after 4 days by a fluorescent focus assay and compared to that of a control culture not containing any drug.
# Using similar conditions as described above, virus was incubated with 0.625 mg/ml CTC96 for the indicated time period before 1,000-fold dilution and addition to cells.
# Virus was incubated with four different concentrations of CTC96 for the indicated time periods, and then the extent of inactivation tested as previously described. Numbers in parentheses indicate results obtained in the initial analysis for the lowest dose ([…]) of CTC96.
# [3] = virus treated 1 hr at 0.625 mg/ml
# [4] = virus treated 1 hr at 1.25 mg/ml
# [5] = virus treated 1 hr at 2.5 mg/ml
# [6] = [CTC96] 0.625 μg/ml, contact time 2 minutes
# [7] = [CTC96] 0.625 μg/ml, contact time 4 minutes
# [8] = [CTC96] 0.625 μg/ml, contact time 8 minutes
# [9] = [CTC96] 0.625 μg/ml, contact time 16 minutes
# [10] = [CTC96] 0.625 μg/ml, contact time 32 minutes
# [11] = [CTC96] 0.625 μg/ml, contact time 64 minutes
smiles,measurement,setting,value
CC1=CC(C)=[N+]2CC[N+]3=C(C)C=C(C)[O][Co-4]23([n+]2cc[nH]c2C)([n+]2cc[nH]c2C)[O]1.[Br-] [Compound 96],inhibited adenovirus infection,adenovirus,67%
same,inhibited varicella-zoster virus infection,varicella-zoster virus,> 98%
same,reduction in infectivity,[1]; any drug-treated sample vs control infection (800-1200 infected cells per well),"≥ 1,000 fold"
same,infected cells when the entire well was scanned,[1]; any of the drug-treated samples,No infected cells were detected
same,inactivation of treated virus,"[1]; even at the lowest concentration of drug tested (0.625 mg/ml), 1 hr treatment",completely inactivated
same,Average # infected cells/area,[1]; [3],0 cells/area
same,# infected cells/area (~500 cells),[1]; [3],0 cells/area
same,Average # infected cells/area,[1]; [4],0 cells/area
same,# infected cells/area (~500 cells),[1]; [4],0 cells/area
same,Average # infected cells/area,[1]; [5],0 cells/area
same,# infected cells/area (~500 cells),[1]; [5],0 cells/area
same,Average # infected cells/area,[1]; virus treated 1 hr at 5 mg/ml,0 cells/area
same,# infected cells/area (~500 cells),[1]; virus treated 1 hr at 5 mg/ml,0 cells/area
same,Average # infected cells/area,[1]; virus treated 1 hr at 10 mg/ml,0 cells/area
same,# infected cells/area (~500 cells),[1]; virus treated 1 hr at 10 mg/ml,0 cells/area
same,% Neutralization,[2]; [6],15%
same,% Neutralization,[2]; [7],25%
same,% Neutralization,[2]; [8],41%
same,% Neutralization,[2]; [9],56%
same,% Neutralization,[2]; [10],65%
same,% Neutralization,[2]; [11],80%
same,% Neutralization,"[2]; [CTC96] 1.25 μg/ml, contact time 2 minutes",4%
same,% Neutralization,"[2]; [CTC96] 1.25 μg/ml, contact time 4 minutes",17%
same,% Neutralization,"[2]; [CTC96] 1.25 μg/ml, contact time 8 minutes",42%
same,% Neutralization,"[2]; [CTC96] 1.25 μg/ml, contact time 16 minutes",61%
same,% Neutralization,"[2]; [CTC96] 1.25 μg/ml, contact time 32 minutes",78%
same,% Neutralization,"[2]; [CTC96] 1.25 μg/ml, contact time 64 minutes",94%
same,% Neutralization,"[2]; [CTC96] 2.5 μg/ml, contact time 2 minutes",21%
same,% Neutralization,"[2]; [CTC96] 2.5 μg/ml, contact time 4 minutes",25%
same,% Neutralization,"[2]; [CTC96] 2.5 μg/ml, contact time 8 minutes",47%
same,% Neutralization,"[2]; [CTC96] 2.5 μg/ml, contact time 16 minutes",72%
same,% Neutralization,"[2]; [CTC96] 2.5 μg/ml, contact time 32 minutes",86%
same,% Neutralization,"[2]; [CTC96] 2.5 μg/ml, contact time 64 minutes",100%
same,% Neutralization,"[2]; [CTC96] 5 μg/ml, contact time 2 minutes",37%
same,% Neutralization,"[2]; [CTC96] 5 μg/ml, contact time 4 minutes",52%
same,% Neutralization,"[2]; [CTC96] 5 μg/ml, contact time 8 minutes",65%
same,% Neutralization,"[2]; [CTC96] 5 μg/ml, contact time 16 minutes",78%
same,% Neutralization,"[2]; [CTC96] 5 μg/ml, contact time 32 minutes",98%
same,% Neutralization,"[2]; [CTC96] 5 μg/ml, contact time 64 minutes",100%
same,% Neutralization (in parentheses: initial analysis),[2]; [6],7%
same,% Neutralization (in parentheses: initial analysis),[2]; [7],43%
same,% Neutralization (in parentheses: initial analysis),[2]; [8],56%
same,% Neutralization (in parentheses: initial analysis),[2]; [9],64%
same,% Neutralization (in parentheses: initial analysis),[2]; [10],76%
same,% Neutralization (in parentheses: initial analysis),[2]; [11],100%
